{"source": "the supplement of paper PMC6045584", "key": {"[1]": {"compound": "T1, C#Cc1cccc(Nc2ncnc3cc(OCCOC)c(OCCOC)cc23)c1 [ERLOTINIB]", "test": "surviving fraction relative to DMSO-only wells; higher = less growth inhibition", "settings": "exposure time: 5 days", "procedure,_shortened": "(§1)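 After seeding at 250–500 cells per well in 384-well plates and a 24-hour wait, log-phase tumour cell lines were exposed without interruption for five days to inhibitors at 0.5, 1, 5, 10, 50, 100, 500 and 1000 nM. CellTiter-Glo luminescence was recorded after 10 minutes at room temperature. Viability is reported as surviving fraction, the luminescence normalised to the median of DMSO-only wells.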"}, "[2]": {"compound": "T2, CO[C@H]1C[C@@H]2CC[C@@H](C)[C@@](O)(O2)C(=O)C(=O)N2CCCC[C@H]2C(=O)O[C@H]([C@H](C)C[C@@H]2CC[C@@H](OCCO)[C@H](OC)C2)CC(=O)[C@H](C)/C=C(\\C)[C@@H](O)[C@@H](OC)C(=O)[C@H](C)C[C@H](C)/C=C/C=C/C=C/1C [EVEROLIMUS]", "test": "surviving fraction relative to DMSO-only wells; higher = less growth inhibition", "settings": "exposure time: 5 days", "procedure,_shortened": "as §1"}, "[3]": {"compound": "T3, NC1(c2ccc(-c3nc4ccn5c(=O)[nH]nc5c4cc3-c3ccccc3)cc2)CCC1 [MK2206]", "test": "surviving fraction relative to DMSO-only wells; higher = less growth inhibition", "settings": "exposure time: 5 days", "procedure,_shortened": "as §1"}, "[4]": {"compound": "T4, CN(Cc1cnc2nc(N)nc(N)c2n1)c1ccc(C(=O)N[C@@H](CCC(=O)O)C(=O)O)cc1 [METHOTREXATE]", "test": "surviving fraction relative to DMSO-only wells; higher = less growth inhibition", "settings": "exposure time: 5 days", "procedure,_shortened": "as §1"}, "[5]": {"compound": "T1, ERLOTINIB", "test": "area under dose-response curve of surviving fraction (unscaled, Aref=0) (surviving fraction x log10(nM)); higher = more resistant", "settings": "exposure time: 5 days; dose range 0.5-1000 nM", "procedure,_shortened": "(§2)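 Three screens per tumour cell line were run in 384-well plates at eight inhibitor concentrations from 0.5 to 1000 nM over five days. Surviving fractions, from CellTiter-Glo luminescence normalised to DMSO-only wells, were fitted with 3-parameter logistic curves in the drc R package. The reported area under the curve is the unscaled activity area. It spans log10 dose, and Aref is 0.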"}, "[6]": {"compound": "T2, EVEROLIMUS", "test": "area under dose-response curve of surviving fraction (unscaled, Aref=0) (surviving fraction x log10(nM)); higher = more resistant", "settings": "exposure time: 5 days; dose range 0.5-1000 nM", "procedure,_shortened": "as §2"}, "[7]": {"compound": "T3, MK2206", "test": "area under dose-response curve of surviving fraction (unscaled, Aref=0) (surviving fraction x log10(nM)); higher = more resistant", "settings": "exposure time: 5 days; dose range 0.5-1000 nM", "procedure,_shortened": "as §2"}, "[8]": {"compound": "T4, METHOTREXATE", "test": "area under dose-response curve of surviving fraction (unscaled, Aref=0) (surviving fraction x log10(nM)); higher = more resistant", "settings": "exposure time: 5 days; dose range 0.5-1000 nM", "procedure,_shortened": "as §2"}, "[9]": {"compound": "Nc1ccn([C@@H]2O[C@H](CO)[C@@H](O)C2(F)F)c(=O)n1 [GEMCITABINE]", "test": "area under dose-response curve of surviving fraction (unscaled, Aref=0) (surviving fraction x log10(nM)); higher = more resistant", "settings": "exposure time: 5 days; dose range 0.5-1000 nM", "procedure,_shortened": "as §2"}}, "note": "± gives the standard deviation of the averaged measurements."}
{"test system": "CCK81 LARGE INTESTINE", "values": [{"measurement": "surviving fraction", "setting": "[1]; 0.5 nM", "result": "0.779 ± 0.2"}, {"measurement": "surviving fraction", "setting": "[1]; 5 nM", "result": "0.794 ± 0.077"}, {"measurement": "surviving fraction", "setting": "[1]; 10 nM", "result": "0.774 ± 0.13"}, {"measurement": "surviving fraction", "setting": "[1]; 50 nM", "result": "0.774 ± 0.11"}, {"measurement": "surviving fraction", "setting": "[1]; 100 nM", "result": "0.749 ± 0.065"}, {"measurement": "surviving fraction", "setting": "[1]; 500 nM", "result": "0.19 ± 0.012"}, {"measurement": "surviving fraction", "setting": "[1]; 1000 nM", "result": "0.78 ± 0.031"}, {"measurement": "surviving fraction", "setting": "[2]; 0.5 nM", "result": "0.812 ± 0.075"}, {"measurement": "surviving fraction", "setting": "[2]; 1 nM", "result": "0.754 ± 0.031"}, {"measurement": "surviving fraction", "setting": "[2]; 5 nM", "result": "0.701 ± 0.11"}, {"measurement": "surviving fraction", "setting": "[2]; 10 nM", "result": "0.711 ± 0.14"}, {"measurement": "surviving fraction", "setting": "[2]; 50 nM", "result": "0.715 ± 0.041"}, {"measurement": "surviving fraction", "setting": "[2]; 100 nM", "result": "0.756 ± 0.048"}, {"measurement": "surviving fraction", "setting": "[2]; 500 nM", "result": "0.551 ± 0.1"}, {"measurement": "surviving fraction", "setting": "[2]; 1000 nM", "result": "0.5123 ± 0.004"}, {"measurement": "surviving fraction", "setting": "[3]; 0.5 nM", "result": "0.868 ± 0.21"}, {"measurement": "surviving fraction", "setting": "[3]; 1 nM", "result": "0.793 ± 0.089"}, {"measurement": "surviving fraction", "setting": "[3]; 5 nM", "result": "0.751 ± 0.14"}, {"measurement": "surviving fraction", "setting": "[3]; 10 nM", "result": "0.809 ± 0.053"}, {"measurement": "surviving fraction", "setting": "[3]; 50 nM", "result": "0.728 ± 0.075"}, {"measurement": "surviving fraction", "setting": "[3]; 100 nM", "result": "0.798 ± 0.098"}, {"measurement": "surviving fraction", "setting": "[3]; 500 nM", "result": "0.944 ± 0.13"}, {"measurement": "surviving fraction", "setting": "[3]; 1000 nM", "result": "0.806 ± 0.049"}, {"measurement": "surviving fraction", "setting": "[4]; 0.5 nM", "result": "0.75 ± 0.13"}, {"measurement": "surviving fraction", "setting": "[4]; 1 nM", "result": "0.843 ± 0.061"}, {"measurement": "surviving fraction", "setting": "[4]; 5 nM", "result": "0.716 ± 0.15"}, {"measurement": "surviving fraction", "setting": "[4]; 10 nM", "result": "0.697 ± 0.029"}, {"measurement": "surviving fraction", "setting": "[4]; 50 nM", "result": "0.701 ± 0.054"}, {"measurement": "surviving fraction", "setting": "[4]; 100 nM", "result": "0.663 ± 0.083"}, {"measurement": "surviving fraction", "setting": "[4]; 500 nM", "result": "0.697 ± 0.077"}, {"measurement": "surviving fraction", "setting": "[4]; 1000 nM", "result": "0.714 ± 0.095"}, {"measurement": "area under dose-response curve", "setting": "[5]", "result": 2.36}, {"measurement": "area under dose-response curve", "setting": "[6]", "result": 2.28}, {"measurement": "area under dose-response curve", "setting": "[7]", "result": 2.67}, {"measurement": "area under dose-response curve", "setting": "[8]", "result": 2.37}, {"measurement": "area under dose-response curve", "setting": "[9]", "result": 1.48}]}
